The values below come from US11448964B2, “Coating compositions for use with an overcoated photoresist” (Rohm and Haas Electronic Materials Korea Ltd., priority 2016, dated 2022).

The series is described as follows: Solubility of thermal acid generators in organic solvents (super-saturated solution, shaken 16 hours, filtered, solid content by Thermal Gravimetric Analysis). It counts as physicochemical. The following applies: room temperature, TGA; for Solubility in HBM (solid content of filtered solution): 2-hydroxyisobutyric acid methyl ester (HBM); for Solubility in EL (solid content of filtered solution): ethyl lactate (EL); for Solubility in PGME (solid content of filtered solution): propylene glycol methyl ether (PGME).

Turning to `Cc1ccccn1` [Example 1, 2-methylpyridin-1-ium 4-methylbenzenesulfonate], the “Solubility in HBM (solid content of filtered solution)” value came to 20 wt. %, the “Solubility in EL (solid content of filtered solution)” value came out at 29 wt. % and the “Solubility in PGME (solid content of filtered solution)” value was determined as 27 wt. %.
Regarding `COc1ccncc1` [Example 2, 4-methoxypyridin-1-ium 4-methylbenzenesulfonate], the “Solubility in HBM (solid content of filtered solution)” value is 18 wt. %, the “Solubility in EL (solid content of filtered solution)” value is listed as 32 wt. % and the “Solubility in PGME (solid content of filtered solution)” value is 26 wt. %.
